PMC12163684, “Gunacins: Novel Benzo[g]chromene Derivatives from the Fungus Exobasidium sp. and Their Potent Anti-Leishmania and Trypanosoma Activities” (ACS Omega, 2025)
Where two headings read alike, the source gives them in different places.

Assays:
Format in all cases: cell-based
[1] = tested on: Madin–Darby canine kidney (MDCK) epithelial cell line; experiment: Cytotoxicity on proliferating cells, crystal violet assay, OD590; settings: Canis lupus familiaris, 24 h treatment, read-out: EC50 ± SEM MDCK
Protocol: (§1) MDCK and RAT cells were cultured in DMEM with 10% FBS at 37 °C in a 5% CO2 atmosphere as described previously. , To assess the toxic effects of the compounds on proliferating cells, cells were seeded in 24-well plates for 24 h to reach ∼15% confluence, and cells were treated in triplicate with increasing concentrations of the isolated compounds for an additional 24 h. Cells were washed with 1× PBS, fixed in staining solution (0.5% crystal violet, 20% methanol) for 10 min, and gently washed five times in 1× PBS. The fixed cells were then dissolved in lysis solution (0.1 M sodium citrate, 25% ethanol, pH 4.2) for 30 min, transferred to a 96-well plate in H2O, and the OD^590 was determined. EC50 values were determined using GraphPad Prism software and the dose–response fit equation. The EC50 values were determined from two independent experiments. Additionally, the impact of the isolated substances on the morphology of the HeLa adenocarcinoma cell line and primary human skin fibroblasts was examined by using fluorescence microscopy. Cells were cultured in DME medium supplemented with 10% FCS (Gibco, Invitrogen, Carlsbad, USA) on glass coverslips in 24-well plates until reaching approximately 50% confluence. The cells were treated with varying concentrations of isolated compounds dissolved in DMSO. Wells containing DMEM with DMSO served as the negative control. After 24 h cultivation, the cells were incubated with MitoTracker Red CMXRos (10 min) to label mitochondria, then fixed with 3.7% paraformaldehyde in PBS (20 min, room temperature), permeabilized with 0.1% Triton X-100 in PBS, and blocked with 1% BSA in PBS. The cells were then stained with Phalloidin-Alexa Fluor488 conjugate. All fluorescence reagents were purchased from Molecular Probes, Invitrogen, Carlsbad, CA, USA. Nuclei were stained with Fluoroshield DAPI (Sigma-Aldrich), and cells were examined using an IX71 microscope equipped with a DP70 camera and a 40× objective. Assays were performed at concentrations of 5, 25, 50, 100, and 125 μM.

[2] = tested on: RAT2 fibroblast cell line; experiment: as above; settings: 24 h treatment, read-out: EC50 ± SEM RAT2
Protocol: as §1

[3] = tested on: Trypanosoma congolense IL3000; experiment: Anti-trypanosomal activity, resazurin (AB assay), bloodstream form; settings: 72 h, axenic, 48 h + 24 h resazurin, read-out: EC50 T. congolense
Protocol: The bloodstream forms of T. b. gambiense LiTat 1.3, T. b. brucei 427, and T. b. evansi AnTat 3/3 were grown in HMI-11 medium pH 7.3 supplemented with 36 mM sodium bicarbonate, 100 U/mL penicillin/streptomycin, and 10% fetal bovine serum at 37 °C and 5% CO2. The bloodstream form of Trypanosoma congolense IL3000 (generous gift from Liam Morrison) was cultured in TcBSF-1 medium pH 7.3 supplemented with 26 mM sodium bicarbonate, 25 mM HEPES, 5.5 mM glucose, 1 mM sodium pyruvate, 0.04 mM adenosine, 0.1 mM hypoxanthine, 0.02 mM thymidine, 0.02 mM bathocuproine, 2 mM L-glutamine, 0.2 mM 2-mercaptoethanol, 100 U/ml penicillin/streptomycin, and 20% goat serum New Zealand origin (Gibco) at 34 °C, 5% CO2. The assay for anti-trypanosomal activity was performed using the resazurin sodium salt dye (AB Assay) according to the published protocol in a 96-well plate format. Parasites at a number of 5 × 10^3 per well (T. b. brucei and T. b. gambiense) or 1 × 10^4 per well (T. b. evansi) were incubated with different drug concentrations (2-fold serial dilutions) in a volume of 200 μL of the medium. Medium with 1% DMSO (the highest concentration of the solvent used in the assay) was used to confirm no effect of the solvent on the cell growth. The plates were incubated for 48 h at the appropriate temperature. Then, 20 μL of resazurin sodium salt solution (0.125 mg/mL in 1× PBS, pH 7. 4) was added to each well, and the cells were incubated for another 24 h under the same conditions. The fluorescence signal was quantified using a Tecan Infinite M200 plate reader at excitation and emission wavelengths of 560 and 590 nm, respectively. The EC50 values were calculated using GraphPad Prism 9.5.1 by nonlinear regression with a variable slope. Each EC50 value is the mean ± standard error of the mean of three separate experiments performed in duplicate.

[4] = tested on: Jurkat T-lymphocyte cell line; experiment: Cytotoxicity, Hoechst 33258 staining and flow cytometry (FACS LSRII); settings: 24 h incubation, flow cytometry, read-out: EC50 ± SEM Jurkat
Protocol: To evaluate the cytotoxicity of the isolated compounds, the immortalized T-lymphocyte cell line Jurkat was cultured in 96-well polypropylene U-bottom plates at a density of approximately 2 × 10^5 cells per well in RPMI1640 medium, with a total volume of 300 μL per well. Cells cultured in RPMI1640 medium alone and in RPMI1640 medium with DMSO were used as negative controls. After 24 h of incubation with the isolated compounds, dissolved in 10 mM DMSO, the cells were washed with PBS solution containing 0.02% gelatin and 0.01% sodium azide. Following this, the cells were stained with the fluorescent dye Hoechst 33258 and analyzed by flow cytometry using a FACS LSRII instrument (BD Biosciences, San Jose, USA) and FlowJo 10 software (Tree Star, Ashland, USA). Initial assays were conducted at concentrations of 5, 25, 50, 100, and 125 μM, with subsequent measurements at concentrations adjusted based on the results of the initial assays, each performed in triplicate. EC50 values were determined using Quest Graph software and the dose–response four parameters regression model. The EC50 values were determined from three independent experiments.

[5] = tested on: L. mexicana (MNYC/BZ/1962/M379) promastigote; experiment: Anti-Leishmania activity, AB assay, axenic promastigotes
Protocol: (§2) Promastigote stages of L. mexicana (MNYC/BZ/1962/M379), a generous gift from Vyacheslav Yurchenko, were cultured in M199 medium pH 7.4 supplemented with 2 μg/mL biopterin, 2 μg/mL hemin, 25 mM HEPES, 100 U/mL penicillin/streptomycin, and 10% heat-inactivated FBS (BioSera) pH 7.4 at 25 °C. The amastigotes were differentiated in vitro from late log/stationary promastigote cultures and cultivated in Schneider’s Drosophila Medium (SIM) at pH 5.5, supplemented with 1.5 μg/mL hemin, 100 U/mL penicillin/streptomycin, and 20% heat-inactivated FBS (BioSera) at pH 5.5, at 32 °C, and 5% CO2. Following a three-day period, the promastigotes underwent a transformation into amastigotes, which were then maintained in SIM.
(§3) To estimate the EC50, the AB assay, as previously described, was employed. The results are expressed as EC50, representing the dose of the compound required to inhibit cellular growth by 50%. Each EC50 value is the mean ± the standard error of the mean derived from at least three separate experiments, each performed in duplicate.

[6] = tested on: L. mexicana (MNYC/BZ/1962/M379) amastigote; experiment: Anti-Leishmania activity, AB assay, axenic amastigotes
Protocol: as §2, §3

Row | SMILES | EC50 [1] [nM] | EC50 ([2]; Rat2, 24 h) [nM] | EC50 [3] [nM] | EC50 ([4]; Homo sapiens, Jurkat, 24 h) [nM] | EC50 [5] [nM] | EC50 [6] [nM] | EC50 [2] [nM] | EC50 [4] [nM]
1 | COc1cc(O)c2c(c1)C(=O)C1=C(C2=O)[C@H](O)[C@@H](O)[C@@H](C)O1 (relative stereo) [Compound 3, (2R,3R,4S)-3,4,6-trihydroxy-8-methoxy-2-methyl-3,4-dihydro-2H-benzo[g]chromene-5,10-dione] | 4700 ± 600 | 5100 ± 700 | 5800 | 16500 ± 1300 | 8600 | 5600 |  | 
2 | COc1cc(O)c2c(c1)C(=O)C1=C(C2=O)[C@@H](OC(C)=O)[C@@H](O)[C@@H](C)O1 [Compound 1, (2R,3S,4R)-3,6-dihydroxy-8-methoxy-2-methyl-5,10-dioxo-3,4,5,10-tetrahydro-2H-benzo[g]chromen-4-yl acetate] | 100 | 100 | 20 | ~1500 | 220 | 10 | 60 | 1700 ± 100
3 | COc1cc(O)c2c(c1)C(=O)C1=C(C2=O)[C@@H](O)[C@@H](OC(C)=O)[C@@H](C)O1 [Compound 5, (2R,3R,4R)-4,6-dihydroxy-8-methoxy-2-methyl-5,10-dioxo-3,4,5,10-tetrahydro-2H-benzo[g]chromen-3-yl acetate] | 100 | 30 | 20 | ~1500 | 240 | 10 |  | 1600 ± 100
4 | COc1cc(O)c2c(c1)C(=O)C1=C(C[C@@H](OC(C)=O)[C@@H](C)O1)C2=O [Compound 7, (2R,3R)-6-hydroxy-8-methoxy-2-methyl-5,10-dioxo-3,4,5,10-tetrahydro-2H-benzo[g]chromen-3-yl acetate] | 5600 ± 1100 | 6000 ± 300 | 2400 | 93200 ± 5900 | 3600 | 2500 |  | 
